The target of one test is T1, β-cardiac myosin (β-MHC) (Bos taurus, UniProt Q9BE39).
T1 construct: gene MYH7; motor domain (MD) in the pre-powerstroke state
The test is described as follows: co-crystal structure at […] Å with aficamten and vanadate. It is filed as binding.

Test [1] concerns the target T2, fast skeletal myosin MYH1 (Oryctolagus cuniculus, UniProt A0A5F9CQ93).
T2 construct: with sarcomere proteins (actin, troponin, tropomyosin) of the myofibril
The test is described as follows: myofibril ATPase assay. In kind it is biochemical.

The values below come from PMC11358156 (Nature Cardiovascular Research, 2024).

SMILES strings stand for the structures.

A word on the IC50: it is the midpoint of a concentration-inhibition curve.

T2 sequence (P02602 2-192): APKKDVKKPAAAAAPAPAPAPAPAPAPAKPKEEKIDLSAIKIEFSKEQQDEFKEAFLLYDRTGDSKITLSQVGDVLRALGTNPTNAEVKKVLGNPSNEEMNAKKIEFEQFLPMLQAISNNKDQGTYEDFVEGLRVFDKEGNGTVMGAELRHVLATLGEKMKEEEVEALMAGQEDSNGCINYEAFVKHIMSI
T2 sequence (P02608 2-170, further chain): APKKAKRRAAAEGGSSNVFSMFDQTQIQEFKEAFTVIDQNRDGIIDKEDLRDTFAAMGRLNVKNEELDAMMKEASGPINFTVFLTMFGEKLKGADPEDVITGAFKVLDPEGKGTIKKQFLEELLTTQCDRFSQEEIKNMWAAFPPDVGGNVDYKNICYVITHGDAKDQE
T2 sequence (A0A5F9CQ93 entry or part of it): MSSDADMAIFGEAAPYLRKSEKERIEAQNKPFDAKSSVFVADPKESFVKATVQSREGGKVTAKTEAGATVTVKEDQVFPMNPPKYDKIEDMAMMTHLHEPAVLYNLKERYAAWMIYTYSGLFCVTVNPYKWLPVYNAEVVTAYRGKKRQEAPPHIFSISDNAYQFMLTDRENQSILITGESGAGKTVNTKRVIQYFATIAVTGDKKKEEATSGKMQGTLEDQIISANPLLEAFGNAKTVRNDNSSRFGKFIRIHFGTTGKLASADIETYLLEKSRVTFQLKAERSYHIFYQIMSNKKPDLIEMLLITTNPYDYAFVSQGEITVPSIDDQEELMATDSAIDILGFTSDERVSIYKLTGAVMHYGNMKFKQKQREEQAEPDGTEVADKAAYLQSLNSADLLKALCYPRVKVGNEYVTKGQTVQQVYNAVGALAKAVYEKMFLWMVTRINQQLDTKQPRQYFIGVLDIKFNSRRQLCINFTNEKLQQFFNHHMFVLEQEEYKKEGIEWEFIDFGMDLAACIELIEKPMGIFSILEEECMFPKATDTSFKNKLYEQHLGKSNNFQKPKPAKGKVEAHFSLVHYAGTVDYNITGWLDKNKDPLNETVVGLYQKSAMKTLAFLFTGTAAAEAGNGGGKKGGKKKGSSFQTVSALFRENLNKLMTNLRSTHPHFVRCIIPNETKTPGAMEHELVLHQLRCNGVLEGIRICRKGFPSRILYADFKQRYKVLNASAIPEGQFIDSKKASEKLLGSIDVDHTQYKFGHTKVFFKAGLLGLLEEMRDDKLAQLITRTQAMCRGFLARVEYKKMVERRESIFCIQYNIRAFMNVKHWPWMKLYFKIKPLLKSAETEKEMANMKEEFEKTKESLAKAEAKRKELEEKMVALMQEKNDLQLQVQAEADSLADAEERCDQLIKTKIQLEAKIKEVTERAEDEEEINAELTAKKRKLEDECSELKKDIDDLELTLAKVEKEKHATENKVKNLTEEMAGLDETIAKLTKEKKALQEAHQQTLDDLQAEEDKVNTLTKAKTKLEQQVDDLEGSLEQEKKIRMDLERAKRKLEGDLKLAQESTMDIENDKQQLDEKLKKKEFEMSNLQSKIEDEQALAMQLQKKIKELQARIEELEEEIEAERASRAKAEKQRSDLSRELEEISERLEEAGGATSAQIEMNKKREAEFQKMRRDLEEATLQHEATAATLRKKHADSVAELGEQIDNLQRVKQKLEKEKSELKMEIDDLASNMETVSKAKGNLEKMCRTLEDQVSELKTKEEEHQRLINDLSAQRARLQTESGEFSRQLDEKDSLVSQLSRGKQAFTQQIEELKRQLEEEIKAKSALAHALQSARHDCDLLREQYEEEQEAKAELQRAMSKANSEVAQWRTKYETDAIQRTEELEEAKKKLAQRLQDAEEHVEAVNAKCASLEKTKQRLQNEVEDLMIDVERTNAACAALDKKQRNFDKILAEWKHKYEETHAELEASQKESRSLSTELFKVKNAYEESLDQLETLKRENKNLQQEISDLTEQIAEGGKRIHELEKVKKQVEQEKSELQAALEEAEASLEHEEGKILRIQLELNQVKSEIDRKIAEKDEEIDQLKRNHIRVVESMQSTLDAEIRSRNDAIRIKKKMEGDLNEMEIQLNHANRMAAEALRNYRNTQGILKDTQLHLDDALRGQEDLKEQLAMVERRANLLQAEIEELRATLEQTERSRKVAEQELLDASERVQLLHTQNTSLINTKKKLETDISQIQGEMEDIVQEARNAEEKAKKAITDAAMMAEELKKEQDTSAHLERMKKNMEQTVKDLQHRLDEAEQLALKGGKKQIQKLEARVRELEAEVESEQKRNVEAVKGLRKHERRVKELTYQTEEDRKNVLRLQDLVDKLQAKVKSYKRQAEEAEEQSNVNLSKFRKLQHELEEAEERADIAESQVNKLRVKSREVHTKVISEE
T1 sequence (Q9BE39 1-782): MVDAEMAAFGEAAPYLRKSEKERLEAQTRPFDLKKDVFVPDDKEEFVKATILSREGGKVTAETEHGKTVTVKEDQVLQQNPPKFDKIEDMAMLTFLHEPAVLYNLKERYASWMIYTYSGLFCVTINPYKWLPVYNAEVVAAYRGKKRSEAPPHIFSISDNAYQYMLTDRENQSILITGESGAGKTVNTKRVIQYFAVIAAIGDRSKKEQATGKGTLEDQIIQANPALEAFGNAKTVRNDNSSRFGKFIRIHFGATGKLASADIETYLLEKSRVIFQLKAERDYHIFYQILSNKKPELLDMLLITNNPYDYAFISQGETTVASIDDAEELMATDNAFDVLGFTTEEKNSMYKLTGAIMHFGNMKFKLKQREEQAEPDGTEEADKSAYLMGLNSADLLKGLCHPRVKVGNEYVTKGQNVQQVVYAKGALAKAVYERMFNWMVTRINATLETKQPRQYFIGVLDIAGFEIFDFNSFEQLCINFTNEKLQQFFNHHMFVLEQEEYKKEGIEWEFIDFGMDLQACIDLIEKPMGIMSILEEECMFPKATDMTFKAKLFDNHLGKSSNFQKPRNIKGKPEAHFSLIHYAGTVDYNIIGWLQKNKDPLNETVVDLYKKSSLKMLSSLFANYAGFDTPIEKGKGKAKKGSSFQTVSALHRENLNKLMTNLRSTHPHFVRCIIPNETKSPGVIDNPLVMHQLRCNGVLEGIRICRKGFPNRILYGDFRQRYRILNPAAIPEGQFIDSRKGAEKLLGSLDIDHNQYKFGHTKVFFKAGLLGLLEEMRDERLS

Regarding `Nc1ncnc2c1ncn2[C@@H]1O[C@H](COP(=O)(O)OP(=O)(O)O)[C@@H](O)[C@H]1O` [ADP], the “co-crystal structure at 2.33 Å with aficamten and vanadate” value at β-cardiac myosin (β-MHC) is “the upper inset displays ADP and Vanadate and the lower inset displays aficamten”.

Take `CCc1nc(-c2ccc3c(c2)CC[C@H]3NC(=O)c2cnn(C)c2)no1` [aficamten]: it took 6.52 µM to reach half-maximal inhibition in test [1] (IC50).
